Experimental findings from US10780061B2, “Composition comprising farnesol and use thereof” (Daegu Gyongbuk Institute of Science and Technology, priority 2014, dated 2020) are described below.

A short description of test [1]: Glucose tolerance test of old mice. The note with it: old mouse, 1 g/kg glucose i.p. after overnight fast. Type of test: in vivo. The method, then: 22-month-old female mice (weighing 30 g) are fed with a control diet and a farnesol diet for 4 months. That is, 22-month-old mice are fed for 4 months, and then 26-month-old mice are analyzed. […] The same mouse is used as a control group, except that it is fed with a diet containing no farnesol. Muscle strength, energy expenditure, glucose tolerance, and fat accumulation of each mouse are evaluated.

Test [2] has as its target T1, human PARIS (WT, C631S) (Homo sapiens, UniProt Q6NUN9).
T1 construct: Human full length PARIS cDNA (IMAGE: 30347892); expressed in transfected cells; host or cells: C2C12 myoblasts, pCMV-Tag2A (Stratagene)
In words: Immunoprecipitation of PARIS WT and PARIS C631S mutant in C2C12 myoblasts. The note with it: C2C12 with FLAG-PARIS WT, 0.1 uM farnesol, 24 hours. It is filed as cell-based. How it is done:
(§1) To examine whether cysteine residues of CGLS sequence (631-634) of an amino acid sequence (SEQ ID NO: 11) of human PARIS are farnesylation sites, a FLAG-PARIS wild-type (WT) gene or a FLAG-PARIS C631S mutant (hereinafter, referred to as “MT”) gene is introduced into C2C12 myoblasts in the presence of DMSO or 0.1 uM farnesol, and the gene is expressed in C2C12 myoblasts by culturing them in DMEM containing 10% FBS for 24 hours. Immunoprecipitation and promoter activity analysis of a cell lysate are performed. The site of amino acid sequence (SEQ ID NO: 10) of mouse PARIS corresponding to CGLS sequence (631-634) of the amino acid sequence (SEQ ID NO: 11) of human PARIS is residues at positions 638-641. This CGLS sequence is conserved in mammals as well as humans and mice, and thus C of CGLS which is located at the C-terminus is a farnesylation site regardless of the length of the sequence.
(§2) Human full length PARIS cDNA (IMAGE: 30347892; Open Biosystems) (SEQ ID NO: 9) is cloned into BamH1 and EcoR1 restriction sites of a mammalian gene expression vector, pCMV-Tag2A (Stratagene). The pCMV-Tag2A vector is a plasmid-derived mammalian expression vector for tagging proteins with an N-terminal FLAG epitope. A QuikChange site-directed mutagenesis kit (Stratagene) is used to prepare pCMV-PARIS C631S, in which a PARIS C631S gene mutant obtained by substituting serine for the cysteine residue at position 631 of human PARIS is cloned into BamHI and EcoRI restriction sites of pCMV-Tag2A (Stratagene). After preparation of the mutant gene, the gene is introduced into pCMV to prepare an overexpression vector. To prepare the PARIS C631S gene, a pair of primers (SEQ ID NOS: 12 and 13) is used. Thereafter, a nucleotide sequence of the PARIS C631S gene thus prepared is confirmed by automated DNA sequencing.
(§3) In the case of PARIS C631S mutant, no farnesylation occurs. […] In FIG. 5C, − represents C2C12 myoblasts introduced with no PARIS gene, and WT and MT represent C2C12 myoblasts introduced with the wild-type PARIS gene and the mutant PARIS gene, that is, PARIS C631S gene, respectively. […]

Test [3] concerns the target T2, human PARIS (WT, C631S) (Homo sapiens, UniProt Q6NUN9, C631S).
T2 construct: Human full length PARIS cDNA (IMAGE: 30347892); expressed in transfected cells; host or cells: C2C12 myoblasts, pCMV-Tag2A (Stratagene)
The description is as above. Type of test: cell-based. The note with it: C2C12 with FLAG-PARIS C631S, 0.1 uM farnesol, 24 hours. The method, then:
as §1, §2, §3

For test [4], the system named is AAV-PARIS WT or C631S-introduced tibialis anterior muscles. In words: SDH staining of muscles introduced with AAV-PARIS WT or AAV-PARIS C631S. Type of test: in vivo, mouse. The settings on record: 5-month-old mice, farnesol diet 1 week, 4 days after virus. The method, then:
5-month-old C57BL/6 male mice (body weight of 22 g) are fed with a control diet or a farnesol-containing diet for 1 week, and then AAV-GFP, AAV-PARIS WT or AAV-PARIS C631S virus is injected into tibialis anterior muscles. Feeding conditions, not mentioned, are the same as in Section 2 of Example 2. After 4 days, the muscles are collected and histological staining is performed to analyze mitochondrial enzyme activity. The staining is performed by SDH enzyme activity staining. Viral transduction efficiency is evaluated by GFP fluorescence.

For test [5], the system named is Myh2a-positive muscle fibers. In words: Myh2a immunostaining of hind limb muscles, high fat diet (PGC-1α-inhibited) model. The settings on record: high fat diet with 0.5% compound, 3 months. Type of test: in vivo, mouse. The source says: To prepare the PGC-1α-inhibited model, 3-month-old mouse (female, body weight of 20 g) is fed with high fat diet, in which fat is increased to 60%, compared to a negative control group, for 5 days (short-term effect) or 3 months (long-term effect). The negative control group is fed with a general diet. Farnesol is mixed in the high fat diet at a content of 0.5% (weight of farnesol/weight of diet). A positive control group is fed with high fat diet containing a type II diabetes drug, metformin at a content of 0.5% (weight of metformin/weight of diet). Mice are fed with the general diet, the high fat diet, and the high fat diet containing farnesol or metformin for 3 months, and then hind limbs are removed to analyze muscle differentiation and mitochondrial enzyme activity.
In FIG. 6C, SD represents a standard diet as a negative control group, HFD represents a high fat diet, and HFD+Farnesol or HFD-metformin represents farnesol or metformin-added HFD, respectively.

T1 sequence (Q6NUN9 whole entry C631S): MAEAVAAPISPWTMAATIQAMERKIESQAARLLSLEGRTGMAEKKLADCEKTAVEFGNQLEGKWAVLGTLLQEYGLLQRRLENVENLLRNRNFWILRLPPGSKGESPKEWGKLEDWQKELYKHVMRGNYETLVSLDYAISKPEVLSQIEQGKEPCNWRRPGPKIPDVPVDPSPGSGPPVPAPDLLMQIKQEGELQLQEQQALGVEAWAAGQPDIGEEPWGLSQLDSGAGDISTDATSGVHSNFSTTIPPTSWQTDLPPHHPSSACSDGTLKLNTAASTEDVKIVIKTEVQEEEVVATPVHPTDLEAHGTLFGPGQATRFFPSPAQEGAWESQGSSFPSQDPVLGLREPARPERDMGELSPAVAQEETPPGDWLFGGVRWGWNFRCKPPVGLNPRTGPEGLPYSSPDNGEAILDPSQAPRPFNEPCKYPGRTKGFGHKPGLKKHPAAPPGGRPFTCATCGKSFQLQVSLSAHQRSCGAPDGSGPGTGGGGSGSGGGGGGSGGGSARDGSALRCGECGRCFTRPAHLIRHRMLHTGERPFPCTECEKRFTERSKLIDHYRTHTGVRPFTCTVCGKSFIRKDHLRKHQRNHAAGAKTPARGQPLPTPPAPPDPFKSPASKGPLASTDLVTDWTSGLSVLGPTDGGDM
T2 sequence (Q6NUN9 whole entry C631S): as above

On to `CC(C)=CCC/C(C)=C/CC/C(C)=C/CO` [farnesol, (2E,6E)-3,7,11-trimethyldodeca-2,6,10-trien-1-ol], for which the “blood glucose level in glucose tolerance test” value in test [1] is given as “remarkably low”. For the same compound, at human PARIS (WT, C631S) [2], the “PGC-1α level, PARIS WT” value is recorded as “PGC-1α increase” and the “farnesylation of PARIS WT” value is “increased”. Moreover, at human PARIS (WT, C631S) [3], the “PGC-1α level, PARIS C631S mutant” value is recorded as “does not affect”. Besides, the “reduction in mitochondrial enzyme activity (SDH), AAV-PARIS WT-introduced muscles” value in test [4] is “inhibits a reduction”. In addition, the “percentage of Myh2a-postive muscle fibers” value in test [5] is listed as “significantly increases”.
